Results: paper PMC11992225, “Antibacterial compounds against non-growing and intracellular bacteria” (npj Antimicrobials and Resistance, 2025)
Values after ≈ are worked out from the molar mass of the structure shown. Values joined by “and” are separate entries in the source; they are usually repeats but may differ in a detail not shown here. Equal values may be shown once.

Legend:
S. aureus DSM2569 = assay: MIC, standard microdilution assay, growing S. aureus; type: cell-based, Staphylococcus aureus; conditions: Staphylococcus aureus, DSM2569; S. aureus; CA-MHB pH 7.4; read-out: MIC (μM) CA-MHB
In short: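 Standard microdilution protocol, triplicate wells. For S. flexneri the growth medium is TSB. The other three strains are grown in HEPES-buffered (40 mM, pH 7.4) CA-MHB, and UPEC is also run at pH 5.5 in LPM containing 30 mM MES.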

non-growing UPEC CFT073 [1] = assay: Dilution-regrowth assay (screen, hit validation, dose-response) on stationary-phase UPEC; type: cell-based, Escherichia coli; conditions: average
In short: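 Regrowth (OD600 after 6 h, 37 °C) of diluted non-growing CFT073, following 24 h compound treatment of 24 h stationary cultures, defines activity relative to untreated control. Screen at 20 µM, validation at 20, 10, 5 µM (duplicates), dose–response in three biological replicates fitted by five-parameter logistic.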

non-growing UPEC CFT073 [2] = assay: Dose-dependent killing analysis (CFU spot-plating) of stationary-phase UPEC; type: cell-based, Escherichia coli; conditions: E. coli in 1:4 CA-MHB (pH 7.4), individual replicates
In short: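 Killing assessed by CFU counts: overnight 37 °C LB agar spot plates (10 μl drops of 10-fold PBS dilutions) scored at the lowest dilution with distinct colonies. Samples were compound-treated non-growing UPEC CFT073, 200 μl per well. Performed as three biological replicates.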

[3] = tested on: non-growing S. aureus DSM2569; assay: Dose-dependent killing analysis (CFU spot-plating) of stationary-phase S. aureus; type: cell-based, Staphylococcus aureus; conditions: S. aureus, individual replicates
In short: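 Survival was scored as CFU after overnight growth at 37 °C on LB agar, using spots from 10-fold PBS dilutions of treated cultures. Non-growing S. aureus DSM2569 had been exposed to compound for 24 h in 1:4 CA-MHB, pH 7.4. Three biological replicates were run.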

SMILES: CC1COc2c(N3CCN(C)CC3)c(F)cc3c(=O)c(C(=O)O)cn1c23 (stereo not shown) [Ofloxacin]
- MIC (S. aureus DSM2569): 2 µM (≈ 0.723 µg/mL)
- Regrowth, OD600 at 6h or 8h after dilution into drug-free medium (non-growing UPEC CFT073 [1]; E. coli in 1:4 CA-MHB (pH 7.4), concentration 0.25): 0.670
- Regrowth, OD600 at 6h or 8h after dilution into drug-free medium (non-growing UPEC CFT073 [1]; E. coli in 1:4 CA-MHB (pH 7.4), concentration 0.5): 0.686
- Regrowth, OD600 at 6h or 8h after dilution into drug-free medium (non-growing UPEC CFT073 [1]; E. coli in 1:4 CA-MHB (pH 7.4), concentration 1): 0.685
- Regrowth, OD600 at 6h or 8h after dilution into drug-free medium (non-growing UPEC CFT073 [1]; E. coli in 1:4 CA-MHB (pH 7.4), concentration 2.5): 0.648
- Regrowth, OD600 at 6h or 8h after dilution into drug-free medium (non-growing UPEC CFT073 [1]; E. coli in 1:4 CA-MHB (pH 7.4), concentration 5): 0.610
- Regrowth, OD600 at 6h or 8h after dilution into drug-free medium (non-growing UPEC CFT073 [1]; E. coli in 1:4 CA-MHB (pH 7.4), concentration 10): 0.563
- Regrowth, OD600 at 6h or 8h after dilution into drug-free medium (non-growing UPEC CFT073 [1]; E. coli in 1:4 CA-MHB (pH 7.4), concentration 30): 0.271
- Regrowth, OD600 at 6h or 8h after dilution into drug-free medium (non-growing UPEC CFT073 [1]; E. coli in LPM (pH 5.5), concentration 0.25): 0.591
- Regrowth, OD600 at 6h or 8h after dilution into drug-free medium (non-growing UPEC CFT073 [1]; E. coli in LPM (pH 5.5), concentration 0.5): 0.585
- Regrowth, OD600 at 6h or 8h after dilution into drug-free medium (non-growing UPEC CFT073 [1]; E. coli in LPM (pH 5.5), concentration 1): 0.589
- Regrowth, OD600 at 6h or 8h after dilution into drug-free medium (non-growing UPEC CFT073 [1]; E. coli in LPM (pH 5.5), concentration 2.5): 0.574
- Regrowth, OD600 at 6h or 8h after dilution into drug-free medium (non-growing UPEC CFT073 [1]; E. coli in LPM (pH 5.5), concentration 5): 0.582
- Regrowth, OD600 at 6h or 8h after dilution into drug-free medium (non-growing UPEC CFT073 [1]; E. coli in LPM (pH 5.5), concentration 10): 0.564
- Regrowth, OD600 at 6h or 8h after dilution into drug-free medium (non-growing UPEC CFT073 [1]; E. coli in LPM (pH 5.5), concentration 30): 0.570
- log10(CFU/ml) after treatment (non-growing UPEC CFT073 [2]; concentration 0.25): 9.204 log10(CFU/ml) and 8.602 log10(CFU/ml) and 8.778 log10(CFU/ml)
- log10(CFU/ml) after treatment (non-growing UPEC CFT073 [2]; concentration 0.5): 9.041 log10(CFU/ml) and 8.301 log10(CFU/ml) and 8.699 log10(CFU/ml)
- log10(CFU/ml) after treatment (non-growing UPEC CFT073 [2]; concentration 1): 9.204 log10(CFU/ml) and 8.778 log10(CFU/ml) and 8.602 log10(CFU/ml)
- log10(CFU/ml) after treatment (non-growing UPEC CFT073 [2]; concentration 2.5): 9.204 log10(CFU/ml) and 8.845 log10(CFU/ml) and 8.699 log10(CFU/ml)
- log10(CFU/ml) after treatment (non-growing UPEC CFT073 [2]; concentration 5): 8.477 log10(CFU/ml) (2×) and 8.301 log10(CFU/ml)
- log10(CFU/ml) after treatment (non-growing UPEC CFT073 [2]; concentration 10): 8.544 log10(CFU/ml) and 8.230 log10(CFU/ml) and 8.176 log10(CFU/ml)
- log10(CFU/ml) after treatment ([3]; concentration 0.1): 9.279 log10(CFU/ml) and 9.041 log10(CFU/ml) and 9.086 log10(CFU/ml)
- log10(CFU/ml) after treatment ([3]; concentration 0.5): 9.301 log10(CFU/ml) and 9.049 log10(CFU/ml) and 8.462 log10(CFU/ml)
- log10(CFU/ml) after treatment ([3]; concentration 2.5): 9.230 log10(CFU/ml) and 9.093 log10(CFU/ml) and 8.740 log10(CFU/ml)
- log10(CFU/ml) after treatment ([3]; concentration 10): 9.447 log10(CFU/ml) and 8.924 log10(CFU/ml) and 8.839 log10(CFU/ml)
